Reference: patent US11964021B2, “Bacterially derived, intact minicells for delivery of therapeutic agents to brain tumors” (EnGeneIC Molecular Delivery Pty Ltd, priority 2011, dated 2024)

Tests used:
[1] = kinetics, FIG. 2A of MacDiarmid et al. Cancer Cell (2007); cited from earlier work
[2] = tested on: Canine brain tumor cells BCD-1, -8, -9 and J3T; assay: MTS cell proliferation assay, doxorubicin sensitivity, canine cells; format: cell-based; details: 1.7 nM to 8,600 nM, 72 hours
Protocol: (§1) Canine brain tumor cells BCD-1, -8, -9 and J3T and human brain tumor cell line U87-MG were seeded into 96 well plates at 5×10^3 cells per well. Cells were incubated overnight at 37° C., 5% CO2.
(§2) Doxorubicin was added to cells in […], of relevant media containing serum at concentrations ranging from 1.7 nM to 8,600 nM and incubated for 72 hours.
(§3) To measure the cytotoxic effect of Doxorubicin an MTS cell proliferation assay was performed. To each well 20 uL of MTS solution (CellTitre 96® Aqueous One MTS reagent—Promega) was added and incubated in the dark for 30 minutes. Absorbance was read at a wavelength of 490 nm. Data was analysed in Prism GraphPad (La Jolla, CA, USA) using non-linear regression and a 4-parameter curve fit.

[3] = tested on: human brain tumor cell line U87-MG; assay: MTS cell proliferation assay, doxorubicin sensitivity, human cells; format: cell-based; details: 1.7 nM to 8,600 nM, 72 hours
Protocol: as §1, §2, §3

| Compound | leakage of drug out of intact minicells once packaged [1] | sensitivity of cells to doxorubicin [2] | sensitivity of cells to doxorubicin [3] |
| --- | --- | --- | --- |
| N.N.[Cl][Pt][Cl] [cisplatin, Cisplatin] | did not leak out | – | – |
| COc1cccc2c1C(=O)c1c(O)c3c(c(O)c1C2=O)C[C@@](O)(C(=O)CO)C[C@@H]3O[C@H]1C[C@H](N)[C@H](O)[C@H](C)O1 [doxorubicin, Doxorubicin] | did not leak out | equally sensitive | equally sensitive |
